From the OligoGym collection
Oligonucleotides are given in HELM: sugar(base)linkage, 5' to 3'; d 2'-deoxyribose, r ribose, m 2'-O-methylribose, p phosphate. ss, as = sense and antisense strand

Molecular target: UBE2D3
Assay: reporter assay of Huesken 2005
Conditions: siRNA
Also: test concentration or dose not given here.

Going from “RNA1{r(C)p.r(A)p.r(G)p.r(C)p.r(A)p.r(C)p.r(A)p.r(A)p.r(U)p.r(G)p.r(U)p.r(U)p.r(C)p.r(U)p.r(G)p.r(C)p.r(A)p.r(G)p.r(G)p.d(T)p.d(T)}|RNA2{r(C)p.r(C)p.r(U)p.r(G)p.r(C)p.r(A)p.r(G)p.r(A)p.r(A)p.r(C)p.r(A)p.r(U)p.r(U)p.r(G)p.r(U)p.r(G)p.r(C)p.r(U)p.r(G)p.d(G)p.d(A)}$$$RNA1{StrandType:ss}|RNA2{StrandType:as}$” to “RNA1{r(C)p.r(A)p.r(G)p.r(C)p.r(A)p.r(U)p.r(U)p.r(U)p.r(G)p.r(U)p.r(C)p.r(U)p.r(C)p.r(G)p.r(A)p.r(U)p.r(A)p.r(U)p.r(U)p.d(T)p.d(T)}|RNA2{r(A)p.r(A)p.r(U)p.r(A)p.r(U)p.r(C)p.r(G)p.r(A)p.r(G)p.r(A)p.r(C)p.r(A)p.r(A)p.r(A)p.r(U)p.r(G)p.r(C)p.r(U)p.r(G)p.d(C)p.d(C)}$$$RNA1{StrandType:ss}|RNA2{StrandType:as}$”, the normalised inhibition (eCFP-eYFP dual reporter) rises from 87.8% to 95.2%.

First: RNA1{r(C)p.r(A)p.r(G)p.r(U)p.r(A)p.r(A)p.r(U)p.r(G)p.r(G)p.r(C)p.r(A)p.r(G)p.r(C)p.r(A)p.r(U)p.r(U)p.r(U)p.r(G)p.r(U)p.d(T)p.d(T)}|RNA2{r(A)p.r(C)p.r(A)p.r(A)p.r(A)p.r(U)p.r(G)p.r(C)p.r(U)p.r(G)p.r(C)p.r(C)p.r(A)p.r(U)p.r(U)p.r(A)p.r(C)p.r(U)p.r(G)p.d(T)p.d(T)}$$$RNA1{StrandType:ss}|RNA2{StrandType:as}$
Second: RNA1{r(C)p.r(A)p.r(U)p.r(U)p.r(G)p.r(G)p.r(C)p.r(A)p.r(A)p.r(G)p.r(C)p.r(C)p.r(A)p.r(C)p.r(A)p.r(A)p.r(U)p.r(U)p.r(A)p.d(T)p.d(T)}|RNA2{r(U)p.r(A)p.r(A)p.r(U)p.r(U)p.r(G)p.r(U)p.r(G)p.r(G)p.r(C)p.r(U)p.r(U)p.r(G)p.r(C)p.r(C)p.r(A)p.r(A)p.r(U)p.r(G)p.d(A)p.d(A)}$$$RNA1{StrandType:ss}|RNA2{StrandType:as}$
The normalised inhibition (eCFP-eYFP dual reporter) of the first is lower: 97.4% for the first, 100% for the second.

Going from “RNA1{r(C)p.r(A)p.r(U)p.r(U)p.r(U)p.r(A)p.r(C)p.r(A)p.r(A)p.r(C)p.r(A)p.r(A)p.r(G)p.r(A)p.r(A)p.r(U)p.r(U)p.r(U)p.r(A)p.d(T)p.d(T)}|RNA2{r(U)p.r(A)p.r(A)p.r(A)p.r(U)p.r(U)p.r(C)p.r(U)p.r(U)p.r(G)p.r(U)p.r(U)p.r(G)p.r(U)p.r(A)p.r(A)p.r(A)p.r(U)p.r(G)p.d(C)p.d(A)}$$$RNA1{StrandType:ss}|RNA2{StrandType:as}$” to “RNA1{r(C)p.r(C)p.r(A)p.r(G)p.r(A)p.r(G)p.r(A)p.r(U)p.r(U)p.r(G)p.r(C)p.r(A)p.r(C)p.r(G)p.r(G)p.r(A)p.r(U)p.r(C)p.r(U)p.d(T)p.d(T)}|RNA2{r(A)p.r(G)p.r(A)p.r(U)p.r(C)p.r(C)p.r(G)p.r(U)p.r(G)p.r(C)p.r(A)p.r(A)p.r(U)p.r(C)p.r(U)p.r(C)p.r(U)p.r(G)p.r(G)p.d(C)p.d(A)}$$$RNA1{StrandType:ss}|RNA2{StrandType:as}$”, the normalised inhibition (eCFP-eYFP dual reporter) rises from 70% to 82%.

First: RNA1{r(C)p.r(C)p.r(A)p.r(U)p.r(U)p.r(U)p.r(G)p.r(U)p.r(U)p.r(C)p.r(A)p.r(C)p.r(U)p.r(G)p.r(C)p.r(U)p.r(A)p.r(U)p.r(G)p.d(T)p.d(T)}|RNA2{r(C)p.r(A)p.r(U)p.r(A)p.r(G)p.r(C)p.r(A)p.r(G)p.r(U)p.r(G)p.r(A)p.r(A)p.r(C)p.r(A)p.r(A)p.r(A)p.r(U)p.r(G)p.r(G)p.d(A)p.d(T)}$$$RNA1{StrandType:ss}|RNA2{StrandType:as}$
Second: RNA1{r(C)p.r(C)p.r(U)p.r(A)p.r(C)p.r(A)p.r(G)p.r(A)p.r(C)p.r(U)p.r(A)p.r(C)p.r(C)p.r(C)p.r(C)p.r(U)p.r(U)p.r(C)p.r(A)p.d(T)p.d(T)}|RNA2{r(U)p.r(G)p.r(A)p.r(A)p.r(G)p.r(G)p.r(G)p.r(G)p.r(U)p.r(A)p.r(G)p.r(U)p.r(C)p.r(U)p.r(G)p.r(U)p.r(A)p.r(G)p.r(G)p.d(A)p.d(A)}$$$RNA1{StrandType:ss}|RNA2{StrandType:as}$
The normalised inhibition (eCFP-eYFP dual reporter) of the first is lower: 94.5% for the first, 99.9% for the second.

Going from “RNA1{r(C)p.r(C)p.r(U)p.r(A)p.r(G)p.r(U)p.r(G)p.r(C)p.r(C)p.r(A)p.r(G)p.r(A)p.r(G)p.r(A)p.r(U)p.r(U)p.r(G)p.r(C)p.r(A)p.d(T)p.d(T)}|RNA2{r(U)p.r(G)p.r(C)p.r(A)p.r(A)p.r(U)p.r(C)p.r(U)p.r(C)p.r(U)p.r(G)p.r(G)p.r(C)p.r(A)p.r(C)p.r(U)p.r(A)p.r(G)p.r(G)p.d(G)p.d(G)}$$$RNA1{StrandType:ss}|RNA2{StrandType:as}$” to “RNA1{r(C)p.r(C)p.r(U)p.r(U)p.r(C)p.r(A)p.r(A)p.r(A)p.r(C)p.r(C)p.r(A)p.r(C)p.r(C)p.r(U)p.r(A)p.r(A)p.r(G)p.r(G)p.r(U)p.d(T)p.d(T)}|RNA2{r(A)p.r(C)p.r(C)p.r(U)p.r(U)p.r(A)p.r(G)p.r(G)p.r(U)p.r(G)p.r(G)p.r(U)p.r(U)p.r(U)p.r(G)p.r(A)p.r(A)p.r(G)p.r(G)p.d(G)p.d(G)}$$$RNA1{StrandType:ss}|RNA2{StrandType:as}$”, the normalised inhibition (eCFP-eYFP dual reporter) rises from 86.2% to 94.5%.

Compared with “RNA1{r(C)p.r(U)p.r(A)p.r(A)p.r(G)p.r(G)p.r(U)p.r(U)p.r(G)p.r(C)p.r(A)p.r(U)p.r(U)p.r(U)p.r(A)p.r(C)p.r(A)p.r(A)p.r(C)p.d(T)p.d(T)}|RNA2{r(G)p.r(U)p.r(U)p.r(G)p.r(U)p.r(A)p.r(A)p.r(A)p.r(U)p.r(G)p.r(C)p.r(A)p.r(A)p.r(C)p.r(C)p.r(U)p.r(U)p.r(A)p.r(G)p.d(G)p.d(T)}$$$RNA1{StrandType:ss}|RNA2{StrandType:as}$”, “RNA1{r(C)p.r(U)p.r(A)p.r(C)p.r(A)p.r(G)p.r(A)p.r(C)p.r(U)p.r(A)p.r(C)p.r(C)p.r(C)p.r(C)p.r(U)p.r(U)p.r(C)p.r(A)p.r(A)p.d(T)p.d(T)}|RNA2{r(U)p.r(U)p.r(G)p.r(A)p.r(A)p.r(G)p.r(G)p.r(G)p.r(G)p.r(U)p.r(A)p.r(G)p.r(U)p.r(C)p.r(U)p.r(G)p.r(U)p.r(A)p.r(G)p.d(G)p.d(A)}$$$RNA1{StrandType:ss}|RNA2{StrandType:as}$” is higher in normalised inhibition (eCFP-eYFP dual reporter): 80.9% for the first, 94.9% for the second.

Compared with “RNA1{r(C)p.r(U)p.r(A)p.r(U)p.r(G)p.r(U)p.r(G)p.r(A)p.r(U)p.r(C)p.r(C)p.r(A)p.r(A)p.r(A)p.r(C)p.r(C)p.r(C)p.r(A)p.r(G)p.d(T)p.d(T)}|RNA2{r(C)p.r(U)p.r(G)p.r(G)p.r(G)p.r(U)p.r(U)p.r(U)p.r(G)p.r(G)p.r(A)p.r(U)p.r(C)p.r(A)p.r(C)p.r(A)p.r(U)p.r(A)p.r(G)p.d(C)p.d(A)}$$$RNA1{StrandType:ss}|RNA2{StrandType:as}$”, “RNA1{r(C)p.r(U)p.r(G)p.r(C)p.r(U)p.r(U)p.r(U)p.r(A)p.r(A)p.r(C)p.r(A)p.r(A)p.r(U)p.r(U)p.r(U)p.r(C)p.r(U)p.r(A)p.r(A)p.d(T)p.d(T)}|RNA2{r(U)p.r(U)p.r(A)p.r(G)p.r(A)p.r(A)p.r(A)p.r(U)p.r(U)p.r(G)p.r(U)p.r(U)p.r(A)p.r(A)p.r(A)p.r(G)p.r(C)p.r(A)p.r(G)p.d(G)p.d(C)}$$$RNA1{StrandType:ss}|RNA2{StrandType:as}$” is lower in normalised inhibition (eCFP-eYFP dual reporter): 95.8% for the first, 89.7% for the second.

Compared with “RNA1{r(C)p.r(U)p.r(U)p.r(U)p.r(U)p.r(A)p.r(U)p.r(C)p.r(C)p.r(A)p.r(U)p.r(U)p.r(U)p.r(G)p.r(U)p.r(U)p.r(C)p.r(A)p.r(C)p.d(T)p.d(T)}|RNA2{r(G)p.r(U)p.r(G)p.r(A)p.r(A)p.r(C)p.r(A)p.r(A)p.r(A)p.r(U)p.r(G)p.r(G)p.r(A)p.r(U)p.r(A)p.r(A)p.r(A)p.r(A)p.r(G)p.d(A)p.d(A)}$$$RNA1{StrandType:ss}|RNA2{StrandType:as}$”, “RNA1{r(G)p.r(A)p.r(C)p.r(A)p.r(A)p.r(U)p.r(U)p.r(C)p.r(A)p.r(U)p.r(U)p.r(U)p.r(U)p.r(C)p.r(C)p.r(U)p.r(A)p.r(C)p.r(A)p.d(T)p.d(T)}|RNA2{r(U)p.r(G)p.r(U)p.r(A)p.r(G)p.r(G)p.r(A)p.r(A)p.r(A)p.r(A)p.r(U)p.r(G)p.r(A)p.r(A)p.r(U)p.r(U)p.r(G)p.r(U)p.r(C)p.d(A)p.d(A)}$$$RNA1{StrandType:ss}|RNA2{StrandType:as}$” is higher in normalised inhibition (eCFP-eYFP dual reporter): 27% for the first, 92.3% for the second.

First: RNA1{r(G)p.r(A)p.r(C)p.r(U)p.r(A)p.r(C)p.r(C)p.r(C)p.r(C)p.r(U)p.r(U)p.r(C)p.r(A)p.r(A)p.r(A)p.r(C)p.r(C)p.r(A)p.r(C)p.d(T)p.d(T)}|RNA2{r(G)p.r(U)p.r(G)p.r(G)p.r(U)p.r(U)p.r(U)p.r(G)p.r(A)p.r(A)p.r(G)p.r(G)p.r(G)p.r(G)p.r(U)p.r(A)p.r(G)p.r(U)p.r(C)p.d(T)p.d(G)}$$$RNA1{StrandType:ss}|RNA2{StrandType:as}$
Second: RNA1{r(G)p.r(A)p.r(U)p.r(C)p.r(C)p.r(A)p.r(A)p.r(A)p.r(C)p.r(C)p.r(C)p.r(A)p.r(G)p.r(A)p.r(U)p.r(G)p.r(A)p.r(C)p.r(C)p.d(T)p.d(T)}|RNA2{r(G)p.r(G)p.r(U)p.r(C)p.r(A)p.r(U)p.r(C)p.r(U)p.r(G)p.r(G)p.r(G)p.r(U)p.r(U)p.r(U)p.r(G)p.r(G)p.r(A)p.r(U)p.r(C)p.d(A)p.d(C)}$$$RNA1{StrandType:ss}|RNA2{StrandType:as}$
The normalised inhibition (eCFP-eYFP dual reporter) of the first is higher: 87.6% for the first, 56.5% for the second.

Compared with “RNA1{r(G)p.r(A)p.r(U)p.r(G)p.r(A)p.r(U)p.r(A)p.r(U)p.r(G)p.r(U)p.r(U)p.r(U)p.r(C)p.r(A)p.r(U)p.r(U)p.r(G)p.r(G)p.r(C)p.d(T)p.d(T)}|RNA2{r(G)p.r(C)p.r(C)p.r(A)p.r(A)p.r(U)p.r(G)p.r(A)p.r(A)p.r(A)p.r(C)p.r(A)p.r(U)p.r(A)p.r(U)p.r(C)p.r(A)p.r(U)p.r(C)p.d(C)p.d(C)}$$$RNA1{StrandType:ss}|RNA2{StrandType:as}$”, “RNA1{r(G)p.r(A)p.r(U)p.r(U)p.r(G)p.r(C)p.r(A)p.r(C)p.r(G)p.r(G)p.r(A)p.r(U)p.r(C)p.r(U)p.r(A)p.r(U)p.r(A)p.r(A)p.r(A)p.d(T)p.d(T)}|RNA2{r(U)p.r(U)p.r(U)p.r(A)p.r(U)p.r(A)p.r(G)p.r(A)p.r(U)p.r(C)p.r(C)p.r(G)p.r(U)p.r(G)p.r(C)p.r(A)p.r(A)p.r(U)p.r(C)p.d(T)p.d(C)}$$$RNA1{StrandType:ss}|RNA2{StrandType:as}$” is higher in normalised inhibition (eCFP-eYFP dual reporter): 66.1% for the first, 92.4% for the second.
